{
  "source": "patent US20180185408A1",
  "about": "“ANTIFUNGAL NYLON-3 POLYMERS AND COMBINATION THERAPY USING THEM TO TREAT FUNGAL INFECTIONS” (priority 2016, published 2018)",
  "tested_on": "filamentous fungi",
  "assay": "MIC100 against non-Aspergillus filamentous fungi (CLSI M38-A2)",
  "assay_type": "cell-based",
  "data": [
    {"smiles": "CCC(C)n1ncn(-c2ccc(N3CCN(c4ccc(OCC5COC(Cn6cncn6)(c6ccc(Cl)cc6Cl)O5)cc4)CC3)cc2)c1=O", "note": "(centres unmarked) [Itraconazole, itraconazole]", "values": [
      {"measurement": "MIC", "setting": "Penicillium expansum", "value": 1, "unit": "µg/mL"},
      {"measurement": "MIC", "setting": "Talaromyces marneffei", "value": 0.125, "unit": "µg/mL"}
    ]}
  ]
}
